This note sets out measurements from paper PMC10977697 (PLOS ONE, 2024).

Molecules are shown by their SMILES.

Experiment [1] addresses T1, Her3-Fc (Homo sapiens, UniProt P21860).
T1 construct: purchased R&D 348-RB
Nature of the experiment: SPR binding to Her3-Fc. The following applies: Biacore S200, 25°C; Her3-Fc Avi-tag on chip SA; HBS-EP+ plus 1% DMSO; MCK. As to the method: All binding experiments were performed using a Biacore S200 instrument (GE Healthcare) at 25°C at a flow rate of 50 μL/min. The kinetics and affinity measurements were carried out using either single-cycle or multi-cycle kinetics (SCK or MCK), solvent corrected and referenced by subtracting the signal to the blank flow cell. Binding affinity and kinetic parameters (association and dissociation rate constants, and dissociation equilibrium constant) were calculated with the Biacore S200 Evaluation Software (version 1.1.1, Cytiva) using either a 1:1 binding model or a steady-state equilibrium model (according to the manufacturer’s instructions).
Her3-Fc Avi-tag (R&D) was captured at about 1200 and 3000 RU on Series S Sensor Chip SA (Cytiva). The SPR measurements were done in HBS-EP+ buffer (0.01 M HEPES pH 7.4, 0.15 M NaCl, 3 mM EDTA, 0.05% v/v Surfactant P20) plus 1% v/v DMSO.

In experiment [2] the target is T1, Her3-Fc. As to the kind of experiment: Spot phage ELISA, Her3-Fc. It counts as binding. In general terms: ELISA stands for enzyme-linked immunosorbent assay.

T1 sequence (P21860 20-643 limits assumed): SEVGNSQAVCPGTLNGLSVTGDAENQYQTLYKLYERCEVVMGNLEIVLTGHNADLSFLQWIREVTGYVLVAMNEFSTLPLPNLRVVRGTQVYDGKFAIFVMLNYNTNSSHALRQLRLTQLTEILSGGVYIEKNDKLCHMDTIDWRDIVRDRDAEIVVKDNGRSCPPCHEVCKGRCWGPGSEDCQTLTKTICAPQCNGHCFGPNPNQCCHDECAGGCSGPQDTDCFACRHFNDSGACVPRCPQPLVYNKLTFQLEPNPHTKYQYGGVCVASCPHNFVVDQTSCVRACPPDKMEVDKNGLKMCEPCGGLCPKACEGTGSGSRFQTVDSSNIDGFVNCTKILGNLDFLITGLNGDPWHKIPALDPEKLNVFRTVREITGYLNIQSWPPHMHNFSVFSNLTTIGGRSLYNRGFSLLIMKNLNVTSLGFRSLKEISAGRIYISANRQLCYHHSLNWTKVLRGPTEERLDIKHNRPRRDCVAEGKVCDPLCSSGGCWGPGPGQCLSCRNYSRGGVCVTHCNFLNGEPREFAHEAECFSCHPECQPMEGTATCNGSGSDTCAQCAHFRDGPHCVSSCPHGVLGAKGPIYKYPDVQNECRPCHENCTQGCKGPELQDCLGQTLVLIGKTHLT

With `CC(C)C[C@@H]1NC(=O)[C@H](CCCNC(=N)N)NC(=O)[C@H](CCC(N)=O)NC(=O)[C@@H]2CSSC[C@@H](C(=O)N[C@@H](CCC(=O)O)C(=O)N[C@@H](CCC(=O)O)C(=O)O)NC(=O)[C@H](CCCCN)NC(=O)[C@@H]3CSSC[C@H](NC(=O)[C@H](CCC(=O)O)NC(=O)[C@H](CCCCN)NC(=O)[C@H](CO)NC(=O)[C@H]([C@@H](C)O)NC(=O)[C@H]([C@@H](C)O)NC(=O)[C@@H](NC(=O)[C@H](CO)NC(=O)[C@@H](N)C(C)C)CSSC[C@H](NC(=O)[C@H](CCC(N)=O)NC(=O)[C@H](CCC(=O)O)NC(=O)CNC(=O)[C@H](Cc4c[nH]c5ccccc45)NC(=O)[C@H](CO)NC(=O)[C@H]([C@@H](C)O)NC(=O)[C@H](CC(N)=O)NC(=O)[C@H](Cc4c[nH]cn4)NC1=O)C(=O)N[C@@H](C(C)C)C(=O)N[C@@H]([C@@H](C)O)C(=O)N[C@@H](CCCCN)C(=O)N[C@@H](Cc1ccccc1)C(=O)N3)C(=O)N[C@@H](Cc1c[nH]c3ccccc13)C(=O)N[C@@H](CO)C(=O)N[C@@H](C(C)C)C(=O)N2` [Her3-Fc_ChTx1], the Kd at Her3-Fc [1] is above 10 µM. Besides, on Her3-Fc [2] (ratio of signal for target protein over BSA background), the S/N was determined as 22.6. Also, the ELISA on Her3-Fc [2] (spot phage ELISA signal, DCP displayed on M13 p8, L1 2) amounted to 1.74.

By Kd is commonly meant the constant that tells how readily two partners part at equilibrium.
